Counter-ions that a name gives are not always drawn.
Test system: trigeminal plexiform neurofibroma
Assay: Compassionate use treatment with imatinib mesylate of a child presenting with a plexiform neurofibroma (MRI)
Format: in vivo, human
Source text: Plexiform neurofibromas primarily present in infants and young children with NF1 are frequently characterized by rapid growth and invasion into adjacent organs often resulting in impairment of normal organ function. In addition, these tumors have a high likelihood of progressing to malignancy for which there is no cure.

Cc1ccc(NC(=O)c2ccc(CN3CCN(C)CC3)cc2)cc1Nc1nccc(-c2cccnc2)n1 [imatinib mesylate, 4-(4-methylpiperazin-1-ylmethyl)-N-[4-methyl-3-(4-(pyridin-3-yl)pyrimidin-2-ylamino)phenyl]-benzamide]
side effects (NF1 patient, 350 mg/m2/dose, treatment for six months): no observed side effects | tumor size (coronal MRI) (before vs 6 months following treatment): profound decrease in tumor size | upper airway (axial MRI) (before vs after 6 months of treatment): marked improvement with airway enlargement | recurrence of symptoms off treatment (off treatment for six months after six months of treatment): without a recurrence of symptoms

From US9345704B2, “Materials and methods for suppressing and/or treating neurofibroma and related tumors” (Indiana University Research and Technology Corp., priority 2008, dated 2016)
